# Molecular target: T1, HePTP (Homo sapiens, UniProt P35236)
# T1 sequence (P35236 1-360): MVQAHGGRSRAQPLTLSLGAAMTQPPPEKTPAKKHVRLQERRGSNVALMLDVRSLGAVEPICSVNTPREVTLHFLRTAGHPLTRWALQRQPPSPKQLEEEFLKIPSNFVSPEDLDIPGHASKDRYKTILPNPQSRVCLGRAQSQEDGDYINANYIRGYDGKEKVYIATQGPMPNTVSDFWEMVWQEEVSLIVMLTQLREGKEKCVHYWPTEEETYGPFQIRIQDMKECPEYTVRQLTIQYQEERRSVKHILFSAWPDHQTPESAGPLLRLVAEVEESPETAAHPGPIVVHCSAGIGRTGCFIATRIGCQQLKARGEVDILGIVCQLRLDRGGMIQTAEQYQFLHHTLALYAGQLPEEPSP
# Test: PTP inhibition assay (pNPP)
# Assay type: biochemical
# Details: […]; HePTP
row,Structure (SMILES),IC50 [µM]
1,O=C(Nc1ccc(Br)c2ccccc12)C(c1ccc(-c2ccccc2)cc1)S(=O)(=O)O (centres unmarked) [Compound L319-16-M47],21
2,O=C(Nc1nc2cc(Cl)ccc2o1)C(c1ccc(-c2ccccc2)cc1)S(=O)(=O)O (centres unmarked) [Compound L319-16-M60],13
3,O=C(C(c1ccc(-c2ccccc2)cc1)S(=O)(=O)O)N1CCc2cc(Br)ccc21 (centres unmarked) [Compound L319-16-M93],7.6
4,O=C(NNc1ccccc1[N+](=O)[O-])C(c1ccc(-c2ccccc2)cc1)S(=O)(=O)O (centres unmarked) [Compound L319-16-N55],43
5,O=C(NNc1ccccc1)C(c1ccc(-c2ccccc2)cc1)S(=O)(=O)O (centres unmarked) [Compound L319-16-N58],20

# Molecular target: T2, LYP (Homo sapiens, UniProt Q9Y2R2)
# T2 sequence (Q9Y2R2 1-807): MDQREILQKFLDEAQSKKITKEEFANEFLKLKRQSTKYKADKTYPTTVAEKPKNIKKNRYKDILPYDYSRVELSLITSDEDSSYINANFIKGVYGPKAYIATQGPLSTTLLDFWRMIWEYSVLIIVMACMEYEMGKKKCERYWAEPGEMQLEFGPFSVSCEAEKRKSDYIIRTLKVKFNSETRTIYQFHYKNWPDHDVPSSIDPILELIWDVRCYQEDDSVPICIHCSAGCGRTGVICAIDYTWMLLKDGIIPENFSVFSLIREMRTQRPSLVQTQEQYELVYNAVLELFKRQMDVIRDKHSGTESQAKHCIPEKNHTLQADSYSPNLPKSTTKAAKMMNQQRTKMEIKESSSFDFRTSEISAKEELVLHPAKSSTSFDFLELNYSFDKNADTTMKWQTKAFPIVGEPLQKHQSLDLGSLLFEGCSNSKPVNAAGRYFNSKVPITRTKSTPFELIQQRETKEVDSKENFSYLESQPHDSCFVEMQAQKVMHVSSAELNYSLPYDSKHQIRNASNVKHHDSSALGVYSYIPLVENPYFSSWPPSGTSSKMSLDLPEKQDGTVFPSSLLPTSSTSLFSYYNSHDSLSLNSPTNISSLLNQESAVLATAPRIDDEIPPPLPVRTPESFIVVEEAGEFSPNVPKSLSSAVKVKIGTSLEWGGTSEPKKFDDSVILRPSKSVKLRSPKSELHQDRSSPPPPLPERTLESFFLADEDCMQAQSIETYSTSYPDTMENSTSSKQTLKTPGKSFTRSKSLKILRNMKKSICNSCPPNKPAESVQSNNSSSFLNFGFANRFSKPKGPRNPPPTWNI
# Test: PTP inhibition assay (pNPP)
# Assay type: biochemical
# Details: […]; LYP
row,Structure (SMILES),IC50 [µM]
1,O=C(Nc1ccc(Br)c2ccccc12)C(c1ccc(-c2ccccc2)cc1)S(=O)(=O)O (centres unmarked) [Compound L319-16-M47],22
2,O=C(Nc1nc2cc(Cl)ccc2o1)C(c1ccc(-c2ccccc2)cc1)S(=O)(=O)O (centres unmarked) [Compound L319-16-M60],15
3,O=C(C(c1ccc(-c2ccccc2)cc1)S(=O)(=O)O)N1CCc2cc(Br)ccc21 (centres unmarked) [Compound L319-16-M93],16
4,O=C(NNc1ccccc1[N+](=O)[O-])C(c1ccc(-c2ccccc2)cc1)S(=O)(=O)O (centres unmarked) [Compound L319-16-N55],35
5,O=C(NNc1ccccc1)C(c1ccc(-c2ccccc2)cc1)S(=O)(=O)O (centres unmarked) [Compound L319-16-N58],20

# Molecular target: T3, SHP2 (Homo sapiens, UniProt Q06124)
# T3 sequence (Q06124 224-528): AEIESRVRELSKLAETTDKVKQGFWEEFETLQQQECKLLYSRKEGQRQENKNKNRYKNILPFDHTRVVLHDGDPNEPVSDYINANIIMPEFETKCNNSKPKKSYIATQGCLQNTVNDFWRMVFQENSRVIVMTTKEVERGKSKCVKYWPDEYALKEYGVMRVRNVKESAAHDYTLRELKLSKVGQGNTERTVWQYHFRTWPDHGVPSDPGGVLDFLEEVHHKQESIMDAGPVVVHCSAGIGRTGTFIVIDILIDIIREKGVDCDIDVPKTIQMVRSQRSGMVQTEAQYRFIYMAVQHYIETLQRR
# Test: SHP2 phosphatase inhibition assay (pNPP)
# Assay type: biochemical
# Details: […]; SHP2; read-out: IC50 SHP2
row,Structure (SMILES),IC50 [µM]
1,O=C(Nc1ccc(Br)c2ccccc12)C(c1ccc(-c2ccccc2)cc1)S(=O)(=O)O (centres unmarked) [Compound L319-16-M47],24
2,O=C(Nc1nc2cc(Cl)ccc2o1)C(c1ccc(-c2ccccc2)cc1)S(=O)(=O)O (centres unmarked) [Compound L319-16-M60],12
3,O=C(C(c1ccc(-c2ccccc2)cc1)S(=O)(=O)O)N1CCc2cc(Br)ccc21 (centres unmarked) [Compound L319-16-M93],16
4,O=C(NNc1ccccc1[N+](=O)[O-])C(c1ccc(-c2ccccc2)cc1)S(=O)(=O)O (centres unmarked) [Compound L319-16-N55],82
5,O=C(NNc1ccccc1)C(c1ccc(-c2ccccc2)cc1)S(=O)(=O)O (centres unmarked) [Compound L319-16-N58],22

# Molecular target: T4, LMWPTP (Homo sapiens, UniProt P24666)
# T4 sequence (P24666 1-158): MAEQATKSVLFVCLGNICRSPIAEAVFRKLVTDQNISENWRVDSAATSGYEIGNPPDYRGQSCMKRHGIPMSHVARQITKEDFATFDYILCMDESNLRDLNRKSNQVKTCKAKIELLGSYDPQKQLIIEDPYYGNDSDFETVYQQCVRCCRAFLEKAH
# Test: PTP inhibition assay (pNPP)
# Assay type: biochemical
# Details: […]; LMWPTP
row,Structure (SMILES),IC50 [µM]
1,O=C(Nc1ccc(Br)c2ccccc12)C(c1ccc(-c2ccccc2)cc1)S(=O)(=O)O (centres unmarked) [Compound L319-16-M47],37
2,O=C(Nc1nc2cc(Cl)ccc2o1)C(c1ccc(-c2ccccc2)cc1)S(=O)(=O)O (centres unmarked) [Compound L319-16-M60],18
3,O=C(C(c1ccc(-c2ccccc2)cc1)S(=O)(=O)O)N1CCc2cc(Br)ccc21 (centres unmarked) [Compound L319-16-M93],24
4,O=C(NNc1ccccc1[N+](=O)[O-])C(c1ccc(-c2ccccc2)cc1)S(=O)(=O)O (centres unmarked) [Compound L319-16-N55],90
5,O=C(NNc1ccccc1)C(c1ccc(-c2ccccc2)cc1)S(=O)(=O)O (centres unmarked) [Compound L319-16-N58],32

# From patent US10494332B2, “Protein tyrosine phosphatases or SHP2 inhibitors and uses thereof” (Indiana University Research and Technology Corporation, priority 2015, dated 2019)
